Literature values as cited in patent publication US20120269803A1, “SUBSTITUTED BENZOSULPHONAMIDES” (BAYER INTELLECTUAL PROPERTY GMBH, priority 2009, published 2012).

Tests used:
[1] = phase I/II clinical trials in humans, literature [19]
[2] = system: MEK1/2; conditions: MEK1/2 inhibitor, literature [17]
[3] = system: colon cancer; conditions: oral treatment, mouse models, literature [18]

IC50 [2]: low nanomolar range
Compound: O=C(NOCC1CC1)c1ccc(F)c(F)c1Nc1ccc(I)cc1Cl [PD184352]
clinical efficacy [1]: insufficient efficacy | colon cancer growth in vivo [3]: inhibit colon cancer growth in vivo
